1 compound from patent US10028955B2, “FGFR inhibitor for use in the treatment of hypophosphatemic disorders” (Novartis AG, priority 2012, dated 2018) can be followed below.

“Also recorded” adds a separate entry of the source.

Holding throughout (type): in vivo, mouse
For experiment [1], the system named is Hyp mice. Description: Long-term (8 weeks, 3 qw) treatment of Hyp mice: body weight, tail length, serum parameters. Conditions: 50 mg/kg 3 qw for 56 days. As to the method:
(§1) Serum was separated from whole blood using clot activator centrifugation tubes. 100 μl of serum were used for determination of phosphate and calcium levels using the VetScan diagnostic profiling system. Serum concentrations of 1,25(OH)2D3 were determined using a radio receptor assay kit. FGF23 serum levels were analyzed by an ELISA detecting intact FGF23 (Kainos).
Long-term FGFR inhibition enhances body weight and tail length development and restores mineral ion homeostasis in Hyp mice. A long-term treatment studies was performed to monitor a potential amelioration of the rickets-like bone phenotypes of the Hyp mouse model. Treatments were performed over a course of 8 weeks. Owing to the persistence of elevated calcium and phosphate levels—extending beyond the clearance of BGJ398 from the kidney (FIG. 4)—mice were treated three times weekly (3 qw) with BGJ398 (50 mg/kg body weight) or vehicle for 56 days and analyzed similarly as explained above. […] Total body weight (FIG. 5B) and tail length gain (FIG. 5D) over the course of the treatment are depicted in FIG. 5 as well. Calcium (FIG. 5E) and phosphate (FIG. 5F) levels at the end of the 8 week treatment were determined from serum 24 h after the last administration and are shown in FIG. 5. Data are shown as average with SEM (n≥6). Data were compared by unpaired Student's t test; * p<0.05; ** p<0.01; *** p<0.001; n. s.: not significant.
Wild-type or Hyp mice were treated again with the FGFR inhibitor BGJ398 (50 mg/kg) or vehicle 3 qw for 56 days and FGF23 (FIG. 6A), parathyroid hormone (PTH) (FIG. 6B) and 1,25(OH)2D3 (FIG. 6C) levels were determined from serum at 24 h after the last dosing. PTH values were determined by separating the serum from whole blood using clot activator centrifugation tubes (Sarstedt). 20 μl of serum were used for determination PTH levels using a mouse PTH ELISA (Immutopics). Data were compared by unpaired Student's t test; * p<0.05; ** p<0.01; *** p<0.001; n. s.: not significant.

Experiment [2] has as its system renal FGF23 target genes Cyp27b1 and Cyp24a1. Description: Renal FGF23 target gene expression (qPCR) after single oral dose in wild-type and Hyp mice. Conditions: both wild-type and Hyp mice, single oral dose 50 mg/kg, 7 h. An excerpt:
(§2) FGFR inhibitor treatment induces 1,25(OH)2D3 biosynthesis and alleviates hypocalcemia and hypophosphatemia in Hyp mice. Wild-type C57BL/6 and Hyp (B6.Cg-PhexHyp/J) mice were obtained from The Jackson Laboratory. Dmp1-null mice were generated by Feng et al. (J. Dent. Res. 2003; 82:776-780.). All mice were kept in cages under standard laboratory conditions. Mice were fed on a standard rodent diet with water ad libitum.
Wild-type or Hyp mice received a single oral dose of the FGFR inhibitor BGJ398 in its free base form (50 mg/kg) or vehicle and were studied 7 h after administration of the compound. BGJ398 or vehicle only (PEG-300/Glucose 5%, 2:1 mix) was administered by oral gavage. Mice were used at 5-7 weeks of age in the case of single dose administrations. […] Concentrations of BGJ398 in kidney at 7 h was also determined. […]
Gene expression was analyzed by quantitative real-time PCR (qPCR). […] Quantitative real-time PCR was performed in an iQ5 Real-Time PCR Detection System using a qPCR core kit for probe assay and an equivalent of 40 or 80 ng RNA of each sample. […]
FGF23 exerts its hypophosphatemic functions in part by transcriptional regulation of the 1,25(OH)2D3-metabolizing enzymes CYP27B1 and CYP24A1 in the kidney. We therefore monitored renal Cyp27b1 and Cyp24a1 expression upon single dose treatment with BGJ398 in Hyp mice and wild-type littermates.
Background: In qPCR the cycle at which signal appears reflects the starting amount.

Experiment [3] relates to Hyp mice. Description: Serum 1,25(OH)2D3, calcium and phosphate after single oral dose in wild-type and Hyp mice.
Source text: as §2
Wild-type or Hyp mice received a single oral dose of the FGFR inhibitor BGJ398 in its free base form (50 mg/kg) or vehicle and were studied 7 h after administration of the compound. BGJ398 or vehicle only (PEG-300/Glucose 5%, 2:1 mix) was administered by oral gavage. Mice were used at 5-7 weeks of age in the case of single dose administrations. Mice were anesthetized by isoflurane inhalation and blood was collected from the caval vein. Mice were sacrificed by exsanguination and kidney and tibial and femoral bones were obtained. Concentrations of BGJ398 in kidney at 7 h was also determined.
as §1
At 24 h post-dosing, single dose treatment with BGJ398 induced elevated serum calcium and phosphate levels in both wild-type and Hyp mice, thus alleviating the severe hypocalcemia and hypophosphatemia observed in control Hyp mice. […] Data in FIGS. 1 A and B is shown as relative levels to the wild-type control group (relative expression of 100) and are given as average with standard errors of the mean (SEM) (n≥6).
Similarly to example 1, wild-type or Hyp mice received a single oral dose of the FGFR inhibitor BGJ398 or vehicle and were studied […] after administration of the compound. Calcium (FIG. 4A) and phosphate (FIG. 4B) levels were determined from serum. Data are shown as average with SEM (n≥3). Data were compared by unpaired Student's t test; * p<0.05; ** p<0.01; *** p<0.001; n. s.: not significant. (C) BGJ398 concentrations in kidney at 7 h and 24 h post-administration. Values are given as average with SEM (n≥5).

Where [4] appears, read: Hyp mice, 24 h after last administration.
Where [5] appears, read: Hyp mice, 24 h after last dosing.
Setting [6] is: Hyp mice, single oral dose 50 mg/kg, 24 h post-dosing.
Setting [7] is: both wild-type and Hyp mice, single oral dose 50 mg/kg, 24 h post-dosing, 50 mg/kg.
The mark [8] stands for this setting: wild-type or Hyp mice, single oral dose, 48 h after administration.

On to `CCN1CCN(c2ccc(Nc3cc(N(C)C(=O)Nc4c(Cl)c(OC)cc(OC)c4Cl)ncn3)cc2)CC1` [BGJ398, 3-(2,6-Dichloro-3,5-dimethoxy-phenyl)-1-{6-[4-(4-ethyl-piperazin-1-yl)-phenylamino]-pyrimid-4-yl}-1-methyl-urea], for which, in the experiment with Hyp mice [1] (setting [4]), the serum calcium levels entry is listed as “complete normalization” and the serum phosphate levels result was “complete normalization”. Also, in the experiment with Hyp mice [1] (setting [5]), the FGF23 serum concentrations result is listed as “further increase” and the “PTH levels (serum)” value was “normalization”. Moreover, the tail length development entry in the experiment on Hyp mice [1] (Hyp mice, vs control Hyp) is given as “much stronger increase in tail length compared to control Hyp mice”. Further, the body weight development entry in the experiment on Hyp mice [1] (Hyp mice, vs vehicle Hyp) was “stronger increase in body weight compared to the vehicle control group”. Further, the tail length gain result with Hyp mice [1] (Hyp mice, vs vehicle wild-type) is “significantly higher compared to vehicle-treated wild-type littermates”. Moreover, the “1,25(OH)2D3 serum levels” value with Hyp mice [1] (wild-type or Hyp mice, 24 h after last dosing) is “not significantly different among the treatment groups”. In addition, in experiment [2], the “renal Cyp24a1 expression” value is listed as “almost complete loss of Cyp24a1 expression” and the “renal Cyp27b1 expression” value is reported as “increased Cyp27b1 levels”. In the experiment with Hyp mice [3] (setting [6]), the “serum calcium levels compared to vehicle-treated wild-type mice” value is “indistinguishable from vehicle-treated wild-type mice” and the “serum phosphate concentrations compared to wild-type mice” value is “still significantly lower compared to serum levels of wild-type mice”. Also, the “1,25(OH)2D3 serum levels” value in the experiment on Hyp mice [3] (both wild-type and Hyp mice, single oral dose 50 mg/kg, 7 h post-dosing) is given as “strong increase”. Further, in the experiment on Hyp mice [3] (setting [7]), the serum calcium levels entry was “increased; also recorded: elevated” and the serum phosphate levels result was “increased; also recorded: elevated”. Also, in the experiment with Hyp mice [3] (setting [8]), the calcium serum levels entry was “persistent increase” and the phosphate serum levels entry is on record as “persistent increase”.
